Experimental findings from patent publication US4921850A, “3-propenylcephem derivative” (Eisai Co., Ltd., priority 1986, dated 1990) are described below.

Converted amounts (≈) assume the structure as drawn. Bounds are passed on as bounds.

For the first assay, the system named is Pseud. aeruginosa EP-01. Description: Anti-bacterial activity (MIC), agar dilution. The class given is cell-based. As to conditions: Pseudomonas aeruginosa, EP01, 18 h, Pseud. aeruginosa EP-01; agar dilution, about 10^6 CFU/ml, 18 hours, 37° C.; read-out: MIC. A digest of the protocol:
(§1)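 MIC values (μg/ml) come from agar dilution: strains grown overnight in Mueller-Hinton broth, diluted to roughly 10^6 CFU/ml, spotted on Mueller-Hinton agar containing twofold serial antibiotic dilutions, and read after 18 hours at 37° C.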
(Agar dilution tests growth on a series of plates holding different concentrations.)
One may read the MIC as the least concentration at which growth counts as inhibited. With `C[N+]1(C/C=C/C2=C(C(=O)[O-])N3C(=O)[C@@H](NC(=O)/C(=N\OCF)c4nsc(N)n4)[C@H]3SC2)CCC(O)CC1` (stereo partly drawn) [Example 90], the MIC was 0.8 µg/mL (≈ 1.44 µM).

With `Nc1nc(/C(=N/OCF)C(=O)N[C@@H]2C(=O)N3C(C(=O)[O-])=C(/C=C/C[N+]4(CCO)CCC(O)CC4)CS[C@H]23)ns1` (stereo partly drawn) [Example 91], the MIC came out at 1.56 µg/mL (≈ 2.66 µM).

Consider `C[N+](C)(C/C=C/C1=C(C(=O)[O-])N2C(=O)[C@@H](NC(=O)/C(=N\OCF)c3nsc(N)n3)[C@H]2SC1)CC(=O)NCO` [Example 92], for which the MIC is 0.8 µg/mL (≈ 1.4 µM).

For the compound `C[N+](C)(C/C=C/C1=C(C(=O)[O-])N2C(=O)[C@@H](NC(=O)/C(=N\OCF)c3nsc(N)n3)[C@H]2SC1)CCC(N)=O` [Example 93], the MIC was 0.8 µg/mL (≈ 1.44 µM).

As for `C[N+]1(C/C=C/C2=C(C(=O)[O-])N3C(=O)[C@@H](NC(=O)/C(=N\OCF)c4nsc(N)n4)[C@H]3SC2)CCCN(C(N)=O)CC1` (stereo partly drawn) [Example 94], the MIC turned out to be 0.8 µg/mL (≈ 1.34 µM).

On to `C[N+](C)(C/C=C/C1=C(C(=O)[O-])N2C(=O)[C@@H](NC(=O)/C(=N\OCF)c3nsc(N)n3)[C@H]2SC1)C(CO)CO` [Example 95], for which the MIC was 0.8 µg/mL (≈ 1.43 µM).

The subject of the next assay is Morganella morganii EP-14. Description: Anti-bacterial activity (MIC), agar dilution. It is filed as cell-based. As to conditions: Morganella morganii, EP14, 18 h, about 10^6 CFU/ml, 37° C., read-out: MIC. An outline of the steps:
as §1
As for `C[N+]1(C/C=C/C2=C(C(=O)[O-])N3C(=O)[C@@H](NC(=O)/C(=N\OCF)c4nsc(N)n4)[C@H]3SC2)CCC(O)CC1` (stereo partly drawn) [Example 90], the MIC was determined as 0.05 µg/mL (≈ 0.09 µM).

As for `Nc1nc(/C(=N/OCF)C(=O)N[C@@H]2C(=O)N3C(C(=O)[O-])=C(/C=C/C[N+]4(CCO)CCC(O)CC4)CS[C@H]23)ns1` (stereo partly drawn) [Example 91], the MIC was no more than 0.025 µg/mL.

Turning to `C[N+](C)(C/C=C/C1=C(C(=O)[O-])N2C(=O)[C@@H](NC(=O)/C(=N\OCF)c3nsc(N)n3)[C@H]2SC1)CC(=O)NCO` [Example 92], the MIC was no more than 0.025 µg/mL.

Turning to `C[N+](C)(C/C=C/C1=C(C(=O)[O-])N2C(=O)[C@@H](NC(=O)/C(=N\OCF)c3nsc(N)n3)[C@H]2SC1)CCC(N)=O` [Example 93], the minimal inhibitory concentration (MIC) is no more than 0.025 µg/mL.

For the compound `C[N+]1(C/C=C/C2=C(C(=O)[O-])N3C(=O)[C@@H](NC(=O)/C(=N\OCF)c4nsc(N)n4)[C@H]3SC2)CCCN(C(N)=O)CC1` (stereo partly drawn) [Example 94], the MIC is no more than 0.025 µg/mL.

Take `C[N+](C)(C/C=C/C1=C(C(=O)[O-])N2C(=O)[C@@H](NC(=O)/C(=N\OCF)c3nsc(N)n3)[C@H]2SC1)C(CO)CO` [Example 95]: the MIC is no more than 0.025 µg/mL.

For another assay, the system named is Escher. coli NIHJ. The assay is described as follows: Anti-bacterial activity (MIC), agar dilution. The class given is cell-based. The following applies: Escherichia coli, 18 h, Escher. coli NIHJ; agar dilution, about 10^6 CFU/ml, 18 hours, 37° C.; read-out: MIC. An outline of the steps: as §1
`C[N+]1(C/C=C/C2=C(C(=O)[O-])N3C(=O)[C@@H](NC(=O)/C(=N\OCF)c4nsc(N)n4)[C@H]3SC2)CCC(O)CC1` (stereo partly drawn) [Example 90]: the minimum inhibitory concentration (MIC) came to 0.05 µg/mL (≈ 0.09 µM).

As to `Nc1nc(/C(=N/OCF)C(=O)N[C@@H]2C(=O)N3C(C(=O)[O-])=C(/C=C/C[N+]4(CCO)CCC(O)CC4)CS[C@H]23)ns1` (stereo partly drawn) [Example 91], the MIC was determined as 0.05 µg/mL (≈ 0.0854 µM).

For the compound `C[N+](C)(C/C=C/C1=C(C(=O)[O-])N2C(=O)[C@@H](NC(=O)/C(=N\OCF)c3nsc(N)n3)[C@H]2SC1)CC(=O)NCO` [Example 92], the MIC was no more than 0.025 µg/mL.

`C[N+](C)(C/C=C/C1=C(C(=O)[O-])N2C(=O)[C@@H](NC(=O)/C(=N\OCF)c3nsc(N)n3)[C@H]2SC1)CCC(N)=O` [Example 93]: the MIC is no more than 0.025 µg/mL.

For `C[N+]1(C/C=C/C2=C(C(=O)[O-])N3C(=O)[C@@H](NC(=O)/C(=N\OCF)c4nsc(N)n4)[C@H]3SC2)CCCN(C(N)=O)CC1` (stereo partly drawn) [Example 94], the MIC is no more than 0.025 µg/mL.

In the case of `C[N+](C)(C/C=C/C1=C(C(=O)[O-])N2C(=O)[C@@H](NC(=O)/C(=N\OCF)c3nsc(N)n3)[C@H]2SC1)C(CO)CO` [Example 95], the MIC is 0.05 µg/mL (≈ 0.0893 µM).

Another assay concerns Staph. aureus 209-P. The assay is described as follows: Anti-bacterial activity (MIC), agar dilution. The following applies: Staphylococcus aureus, 209P, 18 h, Staph. aureus 209-P; agar dilution, about 10^6 CFU/ml, 18 hours, 37° C.; read-out: MIC. The class given is cell-based. An outline of the steps:
as §1
Take `C[N+]1(C/C=C/C2=C(C(=O)[O-])N3C(=O)[C@@H](NC(=O)/C(=N\OCF)c4nsc(N)n4)[C@H]3SC2)CCC(O)CC1` (stereo partly drawn) [Example 90]: the MIC was determined as 0.2 µg/mL (≈ 0.36 µM).

Consider `Nc1nc(/C(=N/OCF)C(=O)N[C@@H]2C(=O)N3C(C(=O)[O-])=C(/C=C/C[N+]4(CCO)CCC(O)CC4)CS[C@H]23)ns1` (stereo partly drawn) [Example 91], for which the MIC is 0.2 µg/mL (≈ 0.342 µM).

Regarding `C[N+](C)(C/C=C/C1=C(C(=O)[O-])N2C(=O)[C@@H](NC(=O)/C(=N\OCF)c3nsc(N)n3)[C@H]2SC1)CC(=O)NCO` [Example 92], the MIC was determined as 0.2 µg/mL (≈ 0.349 µM).

As to `C[N+](C)(C/C=C/C1=C(C(=O)[O-])N2C(=O)[C@@H](NC(=O)/C(=N\OCF)c3nsc(N)n3)[C@H]2SC1)CCC(N)=O` [Example 93], the MIC is 0.2 µg/mL (≈ 0.359 µM).

With `C[N+]1(C/C=C/C2=C(C(=O)[O-])N3C(=O)[C@@H](NC(=O)/C(=N\OCF)c4nsc(N)n4)[C@H]3SC2)CCCN(C(N)=O)CC1` (stereo partly drawn) [Example 94], the MIC was determined as 0.2 µg/mL (≈ 0.335 µM).

For the compound `C[N+](C)(C/C=C/C1=C(C(=O)[O-])N2C(=O)[C@@H](NC(=O)/C(=N\OCF)c3nsc(N)n3)[C@H]2SC1)C(CO)CO` [Example 95], the MIC was 0.2 µg/mL (≈ 0.357 µM).

In a further assay the test system is Kleb. pneumoniae EK-6. The assay is described as follows: Anti-bacterial activity (MIC), agar dilution. It is filed as cell-based. As to conditions: Klebsiella pneumoniae, EK6, 18 h, Kleb. pneumoniae EK-6; agar dilution, about 10^6 CFU/ml, 18 hours, 37° C.; read-out: MIC. An outline of the steps:
as §1
Regarding `C[N+]1(C/C=C/C2=C(C(=O)[O-])N3C(=O)[C@@H](NC(=O)/C(=N\OCF)c4nsc(N)n4)[C@H]3SC2)CCC(O)CC1` (stereo partly drawn) [Example 90], the MIC is no more than 0.025 µg/mL.

For `Nc1nc(/C(=N/OCF)C(=O)N[C@@H]2C(=O)N3C(C(=O)[O-])=C(/C=C/C[N+]4(CCO)CCC(O)CC4)CS[C@H]23)ns1` (stereo partly drawn) [Example 91], the MIC was no more than 0.025 µg/mL.

As to `C[N+](C)(C/C=C/C1=C(C(=O)[O-])N2C(=O)[C@@H](NC(=O)/C(=N\OCF)c3nsc(N)n3)[C@H]2SC1)CC(=O)NCO` [Example 92], the MIC is no more than 0.025 µg/mL.

With `C[N+](C)(C/C=C/C1=C(C(=O)[O-])N2C(=O)[C@@H](NC(=O)/C(=N\OCF)c3nsc(N)n3)[C@H]2SC1)CCC(N)=O` [Example 93], the MIC is no more than 0.025 µg/mL.

As for `C[N+]1(C/C=C/C2=C(C(=O)[O-])N3C(=O)[C@@H](NC(=O)/C(=N\OCF)c4nsc(N)n4)[C@H]3SC2)CCCN(C(N)=O)CC1` (stereo partly drawn) [Example 94], the MIC is no more than 0.025 µg/mL.

Take `C[N+](C)(C/C=C/C1=C(C(=O)[O-])N2C(=O)[C@@H](NC(=O)/C(=N\OCF)c3nsc(N)n3)[C@H]2SC1)C(CO)CO` [Example 95]: the MIC is no more than 0.025 µg/mL.

The next assay has as its system Ser. marcescens ES-75. The assay is described as follows: Anti-bacterial activity (MIC), agar dilution. It is filed as cell-based. The following applies: Serratia marcescens, ES75, 18 h, Ser. marcescens ES-75; agar dilution, about 10^6 CFU/ml, 18 hours, 37° C.; read-out: MIC. A digest of the protocol: as §1
For `C[N+]1(C/C=C/C2=C(C(=O)[O-])N3C(=O)[C@@H](NC(=O)/C(=N\OCF)c4nsc(N)n4)[C@H]3SC2)CCC(O)CC1` (stereo partly drawn) [Example 90], the MIC was no more than 0.025 µg/mL.

Take `Nc1nc(/C(=N/OCF)C(=O)N[C@@H]2C(=O)N3C(C(=O)[O-])=C(/C=C/C[N+]4(CCO)CCC(O)CC4)CS[C@H]23)ns1` (stereo partly drawn) [Example 91]: the minimum inhibitory concentration (MIC) was no more than 0.025 µg/mL.

Take `C[N+](C)(C/C=C/C1=C(C(=O)[O-])N2C(=O)[C@@H](NC(=O)/C(=N\OCF)c3nsc(N)n3)[C@H]2SC1)CC(=O)NCO` [Example 92]: the MIC is no more than 0.025 µg/mL.

Consider `C[N+](C)(C/C=C/C1=C(C(=O)[O-])N2C(=O)[C@@H](NC(=O)/C(=N\OCF)c3nsc(N)n3)[C@H]2SC1)CCC(N)=O` [Example 93], for which the MIC is no more than 0.025 µg/mL.

Turning to `C[N+]1(C/C=C/C2=C(C(=O)[O-])N3C(=O)[C@@H](NC(=O)/C(=N\OCF)c4nsc(N)n4)[C@H]3SC2)CCCN(C(N)=O)CC1` (stereo partly drawn) [Example 94], the MIC is no more than 0.025 µg/mL.

As to `C[N+](C)(C/C=C/C1=C(C(=O)[O-])N2C(=O)[C@@H](NC(=O)/C(=N\OCF)c3nsc(N)n3)[C@H]2SC1)C(CO)CO` [Example 95], the MIC was no more than 0.025 µg/mL.
